From publication PMC5423902, “CXCL9-Derived Peptides Differentially Inhibit Neutrophil Migration In Vivo through Interference with Glycosaminoglycan Interactions” (Frontiers in Immunology, 2017)

How the values were obtained:
[1] = tested on: neutrophil adhesion to the endothelium; assay: CXCL8-induced neutrophil adhesion in the murine cremaster muscle model; assay type: in vivo, mouse (C57Bl/6J); conditions: 108 µg peptide i.v., Figure 8
Procedure: Mice were anesthetized by intraperitoneal injection of 200 mg/kg ketamine (Bayer Inc. Animal Health) and 10 mg/kg xylazine (Bimeda-MTC). After anesthesia, the right jugular vein was cannulated for maintenance of anesthesia and to permit the delivery of the fluorescence-labeled antibodies. Mice were injected intravenously (via jugular vein) with either saline or CXCL9(74-103) 5 min prior to an intrascrotal injection of 1 or 3 µg CXCL8. The animals were placed on a water-heated operating table to maintain body temperature at ~37°C. The depth of anesthesia was controlled by regularly monitoring peripheral reflexes. The cremaster muscle was prepared as previously described ([50]). […] Single unbranched cremasteric venules with a diameter of ~25–40 μm were selected and their blood flow was recorded during a 5 min period. […] A 512 × 512 pixel back-thinned EMCCD camera (C9100-13, Hamamatsu, Bridgewater, NJ, USA) was used for fluorescence detection. […] Images captured using the spinning disk were processed and analyzed in Volocity 4.20. Periods of 5 min/field of view were recorded at 45, 60, and 90 min after CXCL8 administration. A neutrophil was considered to be adherent if it remained stationary for at least 30 s, and total neutrophil adhesion was quantified as the number of adherent cells within a 100-µm length of venule. […]

[2] = previously reported; read-out: KD for LMWH; cited from earlier work
Procedure: To obtain more insight in the contribution of the unique COOH-terminal region of CXCL9 and in the specificity of CXCL9-derived peptides for different GAGs, the affinity of CXCL9(74–93) for LMWH, HS, and CS was determined by IFT. […] A biphasic binding isotherm was obtained when titrating CXCL9(74-93) with HS, indicating more than one binding site for the peptide on this GAG. Fitting only the initial high-affinity phase, a KD ...

dengue virus = conditions: cited from earlier work
From the text: (§1) In several inflammatory diseases, an enhanced expression of chemokines leads to the pathological and continuous accumulation of activated leukocytes in tissues and consequently tissue damage. Thus, a reduction of chemokine activity at sites of excessive inflammation is needed. Although a lot of efforts were invested in the development of small molecule chemokine receptor antagonists, since the discovery of chemokine receptors as members of the GPCR family about two decades ago, success stories are limited to a few drugs that entered the market ([66]). Recently, inhibition of chemokine–GAG inte ...

herpes simplex virus-1 = conditions: cited from earlier work
From the text: as §1

[3] = tested on: respiratory syncytial virus; conditions: cited from earlier work
From the text: as §1

[4] = tested on: CXCL8(1-77) binding to heparin; conditions: compared with CXCL9(74-103) missing 5 to 12 NH2-terminal residues; cited from earlier work
Procedure: To further investigate the role of the COOH-terminal amino acids, the ability of CXCL9(74-93) to inhibit binding of chemokines to heparin and HS was evaluated. CXCL9(74-93) and CXCL9(74-103) together with a COOH-terminal peptide of one of the strongest GAG-binding chemokines, namely, CXCL4(47-70), were compared in an ELISA-like assay to compete with CXCL8 for heparin bind ...

[5] = tested on: CXCL8-induced neutrophil migration; conditions: CXCL8 into tibiofemoral articulation of C57BL/6 mice; cited from earlier work

74KKKQKNGKKHQKKKVLKVRKSQRSRQKKTT103 [CXCL9(74-103), COOH-terminal peptide of CXCL9]
adherence of neutrophils to the endothelium ([1]; 1 µg CXCL8 intrascrotal): reduced the adherence of neutrophils to the endothelium significantly
adherence of neutrophils to the endothelium ([1]; 3 µg CXCL8 intrascrotal): reduced the adherence of neutrophils to the endothelium significantly
Kd [2]: 61 nM
inhibition of viral infection of cells (dengue virus): able to inhibit viral infection of cells
inhibition of viral infection of cells (herpes simplex virus-1): able to inhibit viral infection of cells
inhibition of viral infection of cells [3]: able to inhibit viral infection of cells
competition with CXCL8 for heparin binding [4]: more potently competes with CXCL8 for binding to heparin
inhibition of neutrophil chemotactic activity of CXCL8 in the tibiofemoral articulation [5]: could inhibit the neutrophil chemotactic activity of CXCL8 in vivo
